From patent US10130590B2, “Methods of treating cancer with atovaquone-related compounds” (DANA-FARBER CANCER INSTITUTE, INC., priority 2013, dated 2018)

Assays:
STAT3 [1] = test: STAT3-luc reporter cells, IL-6 stimulated luciferase; format: cell-based
Experimental: (§1) Western blotting was performed as previously described (Battle T E, Arbiser J, & Frank D A (2005) The natural product honokiol induces caspase dependent apoptosis in B-cell chronic lymphocytic leukemia (B-CLL) cells. Blood 106(2):690-697). Antibodies to phospho-MAPK (9101), total MAPK (9102), phospho-Y705 STAT3 (9131), phospho-S6 (2215), total S6 (2217), phospho-4E-BP1 (9451), total 4E-BP1 (9644), total RSK (9355), phospho-S6K (9234, 85 used at 1:5000), total S6K (2708), phospho-eIF2α (9721, used at 1:1000), total eIF2α (5324), ATF4 (11815, used at 1:1000), PDGFRβ (3169), IGF1Rβ (9750), EGFR (2232), and HER2 (2242) were from Cell Signaling Technology. Phospho-RSK antibody was from R&D (AF889). Antibodies to total STAT3 (sc-482) and gp130 (sc-656, used at 1:1000) were from Santa Cruz Biotechnology. Phospho-S727 STAT3 antibody was described previously (229). REDD1 antibody was from Proteintech (10638-1-AP, used at 1:1000). Antibody recognizing full-length and cleaved ATF6 was from Abcam (ab122897, used at 1:1000). Antibodies to tubulin (T5168) and beta actin (A5316) were from Sigma. All antibodies were used at 1:10000 dilution for western blot unless otherwise noted. For immunoprecipitations, cells were lysed in 500 μl lysis buffer (0.5% NP-40, 150 mM NaCl, 50 mM Tris pH 7.5, with protease and phosphatase inhibitors freshly added at 1:100 [Pierce, PI78443]) on ice for 15 minutes, then centrifuged for 10 minutes at 14,000 RPM and 4° C. The supernatant was transferred to a new tube and incubated with 10 μl JAK2 antibody (Santa Cruz sc-278) or a mix of two TYK2 antibodies, 10 μl of each (Santa Cruz sc-5271 and Cell Signaling Technology 9312). Immunoprecipitation was performed overnight at 4° C. with rotation. The next day, 75 μl of protein A/G beads (Santa Cruz sc-2003) were washed twice in lysis buffer, then incubated with immunoprecipitates overnight as before. The next day, the beads were spun down (1 min. at 7,500 RPM and 4° C.) and washed 3 times with 650 μl lysis buffer for 10 minutes at 4° C. with rotation, then boiled in 50 μl sample buffer+10% β-mercaptoethanol. For Western blot, 20 μl were loaded per lane. For detection of phospho-tyrosine, a mixture of two pan-phospho-tyrosine antibodies (Cell Signaling Technology 9411 and 9416, 1:1000 of each) was used. Antibody to phospho-Y1007/1008 JAK2 was from Cell Signaling 86 Technology (3771, used at 1:1000). Antibody to phospho-Y570 JAK2 was from Millipore (09-241, used at 1:1000). Luminometric Assays Luciferase reporter cell lines were described previously (186). Firefly luciferase values were normalized by concurrent cell viability. Cell viability was measured as ATP-dependent luminescence by Cell Titer Glo (Promega).
To determine if atovaquone inhibits STAT3, it was tested in a cell-based reporter system of STAT3 transcriptional activity (Nelson E A, et al. (2008) Nifuroxazide inhibits survival of multiple myeloma cells by directly inhibiting STAT3. Blood 112(13):5095-5102). These cells lack basal STAT3 activation; upon IL-6 treatment, STAT3 becomes activated and drives transcription of a STAT3-dependent luciferase reporter gene. […] Activity of firefly luciferase was measured and normalized by cell viability (Cell Titer Glo). […]
STAT3-luc reporter cells were pre-treated with atovaquone, buparvaquone or TDBHN (concentration 10, 20, 30, or 40 μM) for 1 hour, then stimulated with IL-6 (10 ng/ml) for 5 hours. The activity of firefly luciferase was measured and normalized by cell viability (Cell Titer Glo).

[2] = system: PDGFR-β, EGFR, HER2, and IGF1R-β; test: Western blot of other receptors; format: cell-based; conditions: MEF, MDA-MB-468, SKBR3; 25 μM, 6 or 12 hours
Experimental: Western blotting was performed as previously described (Battle T E, Arbiser J, & Frank D A (2005) The natural product honokiol induces caspase dependent apoptosis in B-cell chronic lymphocytic leukemia (B-CLL) cells. Blood 106(2):690-697). Antibodies to phospho-MAPK (9101), total MAPK (9102), phospho-Y705 STAT3 (9131), phospho-S6 (2215), total S6 (2217), phospho-4E-BP1 (9451), total 4E-BP1 (9644), total RSK (9355), phospho-S6K (9234, 85 used at 1:5000), total S6K (2708), phospho-eIF2α (9721, used at 1:1000), total eIF2α (5324), ATF4 (11815, used at 1:1000), PDGFRβ (3169), IGF1Rβ (9750), EGFR (2232), and HER2 (2242) were from Cell Signaling Technology. Phospho-RSK antibody was from R&D (AF889). Antibodies to total STAT3 (sc-482) and gp130 (sc-656, used at 1:1000) were from Santa Cruz Biotechnology. Phospho-S727 STAT3 antibody was described previously (229). REDD1 antibody was from Proteintech (10638-1-AP, used at 1:1000). Antibody recognizing full-length and cleaved ATF6 was from Abcam (ab122897, used at 1:1000). Antibodies to tubulin (T5168) and beta actin (A5316) were from Sigma. […] Cell viability was measured as ATP-dependent luminescence by Cell Titer Glo (Promega).
MEF, MDA-MB-468, and SKBR3 cells were treated with atovaquone (25 μM) for 6 or 12 hours, then analyzed by Western blot for expression of gp130 and various other receptors. […]

STAT3 [3] = test: Western blot of STAT3 phosphorylation in reporter and cancer cell lines; format: cell-based, human
Experimental: as §1
The mechanism by which atovaquone inhibits STAT3 was investigated. STAT3-luc reporter cells were pre-treated with atovaquone (20 μM) for 1 hr, and then stimulated with IL-6 (10 ng/ml) for 15 minutes, 30 minutes, 1 hours, or 2 hours. Since STAT3 transcriptional activity is critically dependent on tyrosine phosphorylation, Western blotting was performed to see if atovaquone affected STAT3 phosphorylation. […] Next, atovaquone was used to treat U266 (2.5 hours), HEL (6 hours), or INA-6 cells (4 hours). […] In U266 and INA-6 cells, the source of STAT3 activation is JAK-dependent IL-6 signaling, while in HEL cells, STAT3 is activated by mutant JAK2-V617F. Given that atovaquone inhibits constitutive STAT3 activation in cancer cells, it was asked whether atovaquone inhibits expression of endogenous STAT3 target genes in this context.
Since atovaquone reduced gp130 expression at the cell surface, it was asked whether this effect was accompanied by reduced total gp130 in the cell. To address this question, a time course of atovaquone treatment was performed and total cellular gp130 was measured by Western blotting in U266 cells treated with atovaquone at 20 μM. […]

With O=C1C(O)=C([C@H]2CC[C@H](c3ccc(Cl)cc3)CC2)C(=O)c2ccccc21 [atovaquone, trans-2-[4-(4-chlorophenyl)cyclohexyl]-3-hydroxy-1,4-naphthalenedione] the “STAT-3 reporter gene expression” value (STAT3 [1]; 10, 20, 30, or 40 μM for 1 hour, then IL-6 (10 ng/ml) 5 hours, relative to controls) was “inhibited STAT-3 reporter gene expression”, the “luciferase induction by IL-6 (STAT3 transcriptional activity)” value (STAT3 [1]; pre-treated 1 hour, then IL-6 (10 ng/ml) 5 hr, normalized by cell viability) was “dose-dependent inhibition of luciferase induction by IL-6” and the “effect on STAT3 activity compared with STAT1, STAT5 and NF-κB” value (STAT3 [1]; reporter systems) was “much greater”. For the same molecule, the “levels of other receptors (PDGFR-β, EGFR, HER2, IGF1R-β)” value [2] was “not affected”, the “STAT3 tyrosine phosphorylation following IL-6 stimulation” value (STAT3 [3]; STAT3 reporter cells, 20 μM pre-treatment 1 hr, IL-6 (10 ng/ml)) was “reduced STAT3 tyrosine phosphorylation” and the “constitutive STAT3 tyrosine phosphorylation” value (STAT3 [3]; U266 (2.5 hours), HEL (6 hours), INA-6 (4 hours)) was “inhibited constitutive STAT3 tyrosine phosphorylation”. The “time after which STAT3 phosphorylation was inhibited” value (STAT3 [3]; U266, 20 μM, time course) was 10 min, the STAT3 serine phosphorylation (STAT3 [3]; U266, HEL, INA-6 cells) was “not affected” and the “inhibition of STAT3 phosphorylation after cycloheximide pre-treatment” value (STAT3 [3]; U266, cycloheximide 2 μg/ml 1 hour, atovaquone 15 μM 2.5 hours) was “did not affect the inhibition of STAT3 phosphorylation”.
